From ChEMBL document CHEMBL1146412, “Sch 54445: a new polycyclic xanthone with highly potent antifungal activity produced by Actinoplanes sp” (J Nat Prod, 1997)

Assay: Toxicity in iv dosed mouse
Format: organism-based
Settings: in vivo

CCC(C)c1cc2c(Cl)c3c(c(O)c2c(=O)n1N)-c1c(O)c2c(c4c1[C@@H](C3)OCO4)O[C@H]1[C@@H](C2=O)[C@@H](O)C=C[C@H]1OC (stereo partly specified)
LD50: 1 mg/kg
